{"source": "patent US12357642B2", "about": "“Hazardous agent injection system” (Antares Pharma, Inc., priority 2009, dated 2025)", "key": {"[1]": {"settings": "oral, 5 mg/m^2 per week increased to 10 mg/m^2 per week, 46 patients; cited from earlier work"}, "[2]": {"settings": "cited from earlier work"}, "[3]": {"test_system": "patients with active rheumatoid arthritis", "settings": "cited from earlier work; for median Disease Activity Score (DAS28) / number of swollen joints / number of tender joints / patients with an ACR20 response: 24 weeks; for patients achieving ACR20: starting dose 15 mg per week; for median Health Assessment Questionnaire (HAQ) score / patients achieving an ACR70 response: week 24; for time to achieve an ACR20 response: same subgroup (n=98); for ACR20 responders: subgroup >1 year between diagnosis and study entry with prior antirheumatic compounds or steroids (n=98)"}, "[4]": {"settings": "cited from earlier work; for average mean serum concentration: pediatric patients with juvenile rheumatoid arthritis"}, "[5]": {"settings": "cited from earlier work", "remark": "listed apart in the source"}, "[6]": {"settings": "15 mg, 10 rheumatoid arthritis patients, cited from earlier work"}, "[7]": {"test_system": "rheumatoid arthritis patients", "settings": "cited from earlier work"}, "[8]": {"test_system": "patients with rheumatoid arthritis", "settings": "cited from earlier work"}, "[9]": {"test": "Pharmacokinetics of methotrexate in minipig plasma after subcutaneous injection with autoinjector or needle/syringe"}, "[10]": {"settings": "Female, Auto injector, SC, Dose Level 12.5, individual animals"}, "[11]": {"settings": "Female, Syringe, SC, Dose Level 12.5, individual animals"}, "[12]": {"settings": "Male, Auto injector, SC, Dose Level 12.5, individual animals"}, "[13]": {"settings": "Male, Syringe, SC, Dose Level 12.5, individual animals"}}, "note": "Where “and” joins values, the source holds several entries; their conditions need not be identical. Equal values may be shown once. Entries after “also recorded” stand apart in the source; their conditions may differ. Read-outs that look alike come from different tables or passages of the source.", "data": [{"molecule": "CN(Cc1cnc2nc(N)nc(N)c2n1)c1ccc(C(=O)N[C@@H](CCC(=O)O)C(=O)O)cc1", "note": "[Methotrexate, L-(+)—N-[p-[[(2,4-Diamino-6-pteridinyl)methyl]methylamino]-benzoyl]glutamic acid]", "values": [{"measurement": "effect of higher doses", "setting": "[1]", "result": "dose-related efficacy response together with a trend toward increased toxicity"}, {"measurement": "peak serum concentrations and bioavailability, intramuscular versus subcutaneous", "setting": "[2]; 12.5 mg to 25 mg per week", "result": "similar"}, {"measurement": "Tmax after subcutaneous versus intramuscular administration", "setting": "[2]; in 4 out of 5 patients tested", "result": "faster"}, {"measurement": "patients classified as ACR20 non-responders", "setting": "[3]; 16 weeks, of the total tested (52 patients)", "result": 14, "unit": "%"}, {"measurement": "median Disease Activity Score (DAS28)", "setting": "[3]; oral", "result": 3.7}, {"measurement": "number of swollen joints", "setting": "[3]; oral", "result": 3}, {"measurement": "number of tender joints", "setting": "[3]; oral", "result": 6}, {"measurement": "patients with an ACR20 response", "setting": "[3]; oral", "result": 70, "unit": "%"}, {"measurement": "patients achieving ACR20", "setting": "[3]; oral, 16 weeks", "result": 77, "unit": "%"}, {"measurement": "median Health Assessment Questionnaire (HAQ) score", "setting": "[3]; oral", "result": 0.5}, {"measurement": "patients achieving an ACR70 response", "setting": "[3]; oral", "result": 33, "unit": "%"}, {"measurement": "time to achieve an ACR20 response", "setting": "[3]; oral", "result": 6, "unit": "weeks"}, {"measurement": "ACR20 responders", "setting": "[3]; oral", "result": 63, "unit": "%"}, {"measurement": "rate of adverse events, subcutaneous versus oral", "setting": "[3]; same dose", "result": "not accompanied by a significantly higher rate of adverse events"}, {"measurement": "further non-responders with positive ACR20 response after dose increase", "setting": "[3]; subcutaneous dosage increased from 15 mg to 20 mg", "result": 23, "unit": "%"}, {"measurement": "median Disease Activity Score (DAS28)", "setting": "[3]; subcutaneous", "result": 3.3}, {"measurement": "number of swollen joints", "setting": "[3]; subcutaneous", "result": 2}, {"measurement": "number of tender joints", "setting": "[3]; subcutaneous", "result": 3.5}, {"measurement": "patients with an ACR20 response", "setting": "[3]; subcutaneous", "result": 78, "unit": "%"}, {"measurement": "patients achieving ACR20", "setting": "[3]; subcutaneous, 16 weeks", "result": 85, "unit": "%"}, {"measurement": "median Health Assessment Questionnaire (HAQ) score", "setting": "[3]; subcutaneous", "result": 0.4}, {"measurement": "patients achieving an ACR70 response", "setting": "[3]; subcutaneous", "result": 41, "unit": "%"}, {"measurement": "time to achieve an ACR20 response", "setting": "[3]; subcutaneous", "result": 4, "unit": "weeks"}, {"measurement": "ACR20 responders", "setting": "[3]; subcutaneous", "result": 89, "unit": "%"}, {"measurement": "non-responders with positive ACR20 response after switch", "setting": "[3]; switched from 15 mg oral to 15 mg subcutaneous", "result": 30, "unit": "%"}, {"measurement": "initial average distribution volume", "setting": "[4]; after intravenous administration", "result": "about 0.18 L/kg"}, {"measurement": "absorption from parenteral routes of injection", "setting": "[4]; human, in vivo", "result": "completely absorbed"}, {"measurement": "average mean serum concentration", "setting": "[4]; at about 1 hour", "result": "about 0.59 μM"}, {"measurement": "average mean serum concentration", "setting": "[4]; at about 3 hours", "result": "about 0.29 μM"}, {"measurement": "average DAS28", "setting": "[5]; after switch from oral to intramuscular administration at 15 mg per week", "result": 5.2}, {"measurement": "average DAS28", "setting": "[5]; before switch from oral to intramuscular administration at 15 mg per week", "result": 5.6}, {"measurement": "disease improvement compared to placebo", "setting": "[5]; intramuscular dosage escalated 15 to 45 mg per week, 54 patients who did not achieve DAS28<3.2", "result": "no difference in disease improvement"}, {"measurement": "oral bioavailability", "setting": "[6]; fasting", "result": 67, "unit": "%"}, {"measurement": "oral bioavailability", "setting": "[6]; fed", "result": 63, "unit": "%"}, {"measurement": "patients judged to have moderate or marked improvement", "setting": "[7]; 10 mg to 15 mg intramuscular once a week, 78 rheumatoid arthritis patients", "result": "Eighty-two"}, {"measurement": "patients who deteriorated after switch to oral and improved after switching back to intramuscular", "setting": "[7]; of the 48 patients who switched to oral", "result": 10, "unit": "patients"}, {"measurement": "patients reporting nausea", "setting": "[8]; after switching to oral", "result": 48, "unit": "%"}, {"measurement": "patients reporting nausea", "setting": "[8]; switched back to intramuscular", "result": 40, "unit": "%"}, {"measurement": "Methotrexate in samples collected prior to dosing", "setting": "[9]; Female, autoinjector, Day 8, attributed to carryover of the instrument, LLOQ=0.2 ng/mL", "result": 3.19, "unit": "ng/mL"}, {"measurement": "AUC(0-mx)", "setting": "[9]; [10]", "result": "2501 ng·mL·h and 3172 ng·mL·h"}, {"measurement": "AUC(0-t)", "setting": "[9]; [10]", "result": "2498 ng·mL·h and 3169 ng·mL·h"}, {"measurement": "T½", "setting": "[9]; [10]", "result": "3.91 h and 3.95 h"}, {"measurement": "AUC(0-t)", "setting": "[9]; Female, Autoinjector, Day 8, individual animals", "result": 3169, "unit": "ng·h/mL"}, {"measurement": "AUC(0-t)", "setting": "[9]; Female, Needle/Syringe, Day 1, individual animals", "result": "2669 ng·h/mL and 1831 ng·h/mL"}, {"measurement": "AUC(0-mx)", "setting": "[9]; [11]", "result": "2675 ng·mL·h and 1832 ng·mL·h"}, {"measurement": "AUC(0-t)", "setting": "[9]; [11]", "result": "2669 ng·mL·h and 1831 ng·mL·h"}, {"measurement": "Tmax", "setting": "[9]; [11]", "result": 0.50, "unit": "h"}, {"measurement": "T½", "setting": "[9]; [11]", "result": "4.90 h and 2.53 h"}, {"measurement": "AUC(0-mx)", "setting": "[9]; [12]", "result": "1903 ng·mL·h and 1407 ng·mL·h"}, {"measurement": "AUC(0-t)", "setting": "[9]; [12]", "result": "1901 ng·mL·h and 1405 ng·mL·h"}, {"measurement": "T½", "setting": "[9]; [12]", "result": "2.00 h and 1.81 h"}, {"measurement": "AUC(0-t)", "setting": "[9]; Male, Autoinjector, Day 1, individual animals", "result": "1405 ng·h/mL and 1162 ng·h/mL"}, {"measurement": "AUC(0-t)", "setting": "[9]; Male, Needle/Syringe, Day 8, individual animals", "result": "2016 ng·h/mL and 1324 ng·h/mL"}, {"measurement": "AUC(0-t)", "setting": "[9]; [13]", "result": "2464 ng·mL·h and 2016 ng·mL·h"}, {"measurement": "Tmax", "setting": "[9]; [13]", "result": 0.50, "unit": "h"}, {"measurement": "difference in exposure / PK parameters between males and females", "setting": "[9]; SC 12.5 mg, both devices", "result": "no marked difference; also recorded: no marked sex-related differences"}, {"measurement": "exposure with autoinjector compared with needle/syringe", "setting": "[9]; SC 12.5 mg, male and female minipigs", "result": "very similar; also recorded: comparable"}, {"measurement": "time at which maximal plasma concentrations were generally observed", "setting": "[9]; both devices, SC 12.5 mg, first collection time point", "result": 0.25, "unit": "h"}, {"measurement": "half-life", "setting": "[9]; both, Gottingen, minipig, plasma, subcutaneous, 12.5 mg, terminal elimination half-life, range over animals and both devices, where it could be estimated", "result": "1.81 to 4.9", "unit": "h"}, {"measurement": "AUC(0-t)", "setting": "[9]; female, Gottingen, minipig, plasma, sc, 12.5 mg, AUC(0-t), Female, Autoinjector, Day 8, individual animals", "result": 2500, "unit": "ng·h/mL"}, {"measurement": "AUC(0-t)", "setting": "[9]; female, Gottingen, minipig, plasma, sc, 12.5 mg, AUC(0-t), Female, Needle/Syringe, Day 1, individual animals", "result": 2380, "unit": "ng·h/mL"}, {"measurement": "Tmax", "setting": "[9]; female, Gottingen, minipig, plasma, sc, […], Tmax, Auto injector, Dose Level 12.5, Median value", "result": 0.25, "unit": "h"}, {"measurement": "Tmax", "setting": "[9]; female, Gottingen, minipig, plasma, sc, […], Tmax, Auto injector, Dose Level 12.5, individual animals", "result": 0.25, "unit": "h"}, {"measurement": "Tmax", "setting": "[9]; female, Gottingen, minipig, plasma, sc, […], Tmax, Syringe, Dose Level 12.5, Median value", "result": 0.25, "unit": "h"}, {"measurement": "Tmax", "setting": "[9]; female, Gottingen, minipig, plasma, sc, […], Tmax, Syringe, Dose Level 12.5, individual animals", "result": 0.25, "unit": "h"}, {"measurement": "half-life", "setting": "[9]; female, Gottingen, minipig, plasma, sc, […], T½, Auto injector, Dose Level 12.5, Mean", "result": 3.71, "unit": "h"}, {"measurement": "half-life", "setting": "[9]; female, Gottingen, minipig, plasma, sc, […], T½, Auto injector, Dose Level 12.5, individual animals", "result": 3.26, "unit": "h"}, {"measurement": "half-life", "setting": "[9]; female, Gottingen, minipig, plasma, sc, […], T½, Syringe, Dose Level 12.5, Mean", "result": 3.39, "unit": "h"}, {"measurement": "half-life", "setting": "[9]; female, Gottingen, minipig, plasma, sc, […], T½, Syringe, Dose Level 12.5, individual animals", "result": 2.74, "unit": "h"}, {"measurement": "AUC(0-t)", "setting": "[9]; male, Gottingen, minipig, plasma, sc, 12.5 mg, AUC(0-t), Male, Autoinjector, Day 1, individual animals", "result": 1900, "unit": "ng·h/mL"}, {"measurement": "AUC(0-t)", "setting": "[9]; male, Gottingen, minipig, plasma, sc, 12.5 mg, AUC(0-t), Male, Needle/Syringe, Day 8, individual animals", "result": 2460, "unit": "ng·h/mL"}, {"measurement": "concentration at 24 h", "setting": "[9]; male, Gottingen, minipig, plasma, sc, […], Concentration of Methotrexate in plasma, Males, Autoinjector, 24 h, individual animals, BQL = below quantitation limit 0.200 ng/mL", "result": 0.696, "unit": "ng/mL"}, {"measurement": "Tmax", "setting": "[9]; male, Gottingen, minipig, plasma, sc, […], Tmax, Auto injector, Dose Level 12.5, Median value", "result": 0.25, "unit": "h"}, {"measurement": "Tmax", "setting": "[9]; male, Gottingen, minipig, plasma, sc, […], Tmax, Auto injector, Dose Level 12.5, individual animals", "result": 0.25, "unit": "h"}, {"measurement": "Tmax", "setting": "[9]; male, Gottingen, minipig, plasma, sc, […], Tmax, Syringe, Dose Level 12.5, Median value", "result": 0.25, "unit": "h"}, {"measurement": "Tmax", "setting": "[9]; male, Gottingen, minipig, plasma, sc, […], Tmax, Syringe, Dose Level 12.5, individual animals", "result": 0.25, "unit": "h"}, {"measurement": "half-life", "setting": "[9]; male, Gottingen, minipig, plasma, sc, […], T½, Auto injector, Dose Level 12.5, Mean", "result": 1.92, "unit": "h"}, {"measurement": "half-life", "setting": "[9]; male, Gottingen, minipig, plasma, sc, […], T½, Auto injector, Dose Level 12.5, individual animals", "result": 1.95, "unit": "h"}, {"measurement": "half-life", "setting": "[9]; male, Gottingen, minipig, plasma, sc, […], T½, Syringe, Dose Level 12.5, individual animals", "result": 1.91, "unit": "h"}]}]}
